In US20260207450A1, “ANTI-DANDRUFF COMPOSITIONS” (Firmenich SA, priority 2022, published 2026):
≈ marks a conversion by molar mass, not a printed value.

Legend:
[1] = system: Malassezia furfur DSM 6170; assay: MIC assay on Malassezia furfur DSM 6170 (resazurin); assay type: cell-based; settings: 30° C., 48 h aerobically, dilutions 29 to 10000 ppm; for MIC: Malassezia furfur, DSM6170
Method: The MIC assay for Malassezia furfur DSM 6170 was modified based on the method in Journal of Clinical Microbiology 2017, Vol 55: 1883-1893. In brief, working culture was prepared from stock cultures stored at −80° C. to obtain a cell suspension as the inoculum. Serial dilutions of samples, 29 to 10000 ppm, were tested to determine the MIC values for growth of Malassezia furfur DSM 6170 after at 30° C. for 48 h aerobically. Resazurin was used as growth indicator.
(§1) A total of 26 perfumery materials were examined for an inhibition effect on Malassezia furfur and Staphylococcus aureus.

[2] = system: Staphylococcus aureus ATCC 6538; assay: MIC assay on Staphylococcus aureus ATCC 6538; assay type: cell-based; settings: TSB, 37° C., 24 h aerobically, dilutions 29 to 10000 ppm; for MIC: Staphylococcus aureus, ATCC6538, read-out: MIC (ppm) S. aureus
Method: MIC assay for Staphylococcus aureus ATCC 6538 is based on Clinical Laboratory Standard Institute: CLSI/NCCLS M07-A8. Cell suspension of working cultures of S. aureus was prepared following the instructions of culture provider ATCC, USA.
as §1

[3] = system: M. restricta ATCC MYA-4611; assay: Disc-diffusion assay, perfumery materials in DMSO, M. restricta; assay type: cell-based, Malassezia restricta; settings: for zone of inhibition at 0.2 % / zone of inhibition at 2 % / zone of inhibition at 1 %: Malassezia restricta, 144 h; for Inhibition zone (mm) M. restricta: 20 μL on 6 mm disc, 6 days, NI means no inhibition zone
Method: (§2) Anti-Malassezia effect of perfumery materials in solvent in DMSO was determined using disc-diffusion assay, based on the method of J Mycol Infect 2018: 23: 91-98. In brief, working cultures of Malassezia strains were prepared from −80 C stock culture on mDixon agar plate (for M. furfur DSM 6170) or mLN agar plate (for M. restricta ATCC MYA-4611 and M. globosa ATCC MYA-4612), and cells were suspended in 0.9% saline, and spread onto mDixon or mLN agar surface to prepare lawn plate. Test samples solutions are prepared in DMSO to final concentrations of 0.2%, 1% or 2%. Discs (Whatman, 6 mm in diameter) were placed on inoculated agar plates with each Malassezia strains respectively, including M. furfur DSM 6170, M. restricta ATCC MYA-4611, and M. globosa ATCC MYA-4612. Aliquots (20 μL) of each sample solution was added to each disc. Agar plates were incubated at 30° C. for 3 days for M. furfur DSM 6170, and 6 days for M. restricta ATCC MYA-4611, and M. globosa ATCC MYA-4612. After incubation, diameters of the clear inhibition zones around the discs were measured. Inhibition zone greater than 6 mm are regarded as having anti-Malassezia effect.

[4] = system: M. globosa ATCC MYA-4612; assay: Disc-diffusion assay, perfumery materials in DMSO, M. globosa; assay type: cell-based, Malassezia globosa; settings: for zone of inhibition at 0.2 % / zone of inhibition at 2 % / zone of inhibition at 1 %: Malassezia globosa, 144 h; for Inhibition zone (mm) M. globosa: 20 μL on 6 mm disc, 6 days, NI means no inhibition zone
Method: as §2

[5] = system: M. furfur DSM 6170; assay: Disc-diffusion assay, perfumery materials in DMSO, M. furfur; assay type: cell-based, Malassezia furfur; settings: for zone of inhibition at 2 %: Malassezia furfur, DSM6170, 72 h
Method: as §2

[6] = system: M. furfur DSM 6170; assay: Disc-diffusion assay, (2E,6Z)-2,6-nonadienal with anti-dandruff actives in DMSO, M. furfur; assay type: cell-based, Malassezia furfur; settings: 3 days
Method: The anti-Malassezia effect of perfumery materials in combination of anti-dandruff actives using the disk-diffusion assay, modified based on the method of J Mycol Infect 2018; 23: 91-98. working culture of M. furfur DSM 6170 was prepared from −80 C stock culture on mDixon agar plate, and cells were suspended in 0.9% saline, and spread onto mDixon agar surface to prepare lawn plates. Discs (Whatman, 6 mm in diameter) were placed on inoculated mDixon agar plates. Test sample solutions are prepared in DMSO. Aliquots (20 μL) of each sample solution was added to each disc. Agar plates were incubated at 30° C. for 3 days. After incubation, diameters of the clear inhibition zones around the discs were measured.

[7] = system: M. restricta ATCC MYA-4611; assay: Cylinder diffusion assay, hair conditioner base with 0.35% PO and mixtures, M. restricta; assay type: cell-based, Malassezia restricta; settings: conditioner containing 0.35% PO without mixture; 25% conditioner solution, 80 μL cylinder, 4 days
Method: A hair conditioner base was prepared. The main components included water, cetyl alcohol, MIRASIL® ADME-NP (water (and) amodimethicone (and) trideceth-6), stearyl alcohol, behentrimonium methosulfate (and) Isopropanol.
Anti-Malassezia effect of hair conditioners was determined using cylinder diffusion assay that was used for testing shampoos, as described above. In brief, working cultures of M. restricta ATCC MYA-4611 and inoculated as described in disc diffusion assay. Cylinders were placed on inoculated agar plates. Aliquots (80 μL) of each sample (25% conditioner solution) were added to each cylinder. Agar plates were incubated at 30° C. for 4 days. After incubation, diameters of the clear inhibition zones around the discs were measured.

[8] = system: M. globosa ATCC MYA-4612; assay: Disc-diffusion assay, perfumery materials in Shampoo Base B, M. globosa; assay type: cell-based, Malassezia globosa; settings: 0.25% perfumery material in 25% Shampoo Base B solution, 6 mm disc, 6 days
Source text: (§3) The present inventors sought to investigate how whether the anti-dandruff effect of compounds and compositions could be used in shampoo formulations. For this reason, they prepared two shampoo bases. Shampoo Base A is a composition with Sodium Laureth Sulfate and cocamidopropyl betaine as the primary ingredients, while Shampoo Base B is a composition with Ammonium Lauryl Sulfate and Ammonium Laureth Sulfate as primary ingredients. Anti-Malassezia effect of perfumery materials in shampoo was determined using disc-diffusion assay, based on the method of J Mycol Infect 2018; 23: 91-98. […] Aliquots (20 μL) of each sample solution was added to each disc. Agar plates were incubated at 30° C. for 6 days. After incubation, diameters of the clear inhibition zones around the discs were measured.

[9] = system: M. restricta ATCC MYA-4611; assay: Disc-diffusion assay, perfumery materials in Shampoo Base B, M. restricta; assay type: cell-based, Malassezia restricta; settings: 0.25% perfumery material in 25% Shampoo Base B solution, 6 mm disc, 6 days
Source text: as §3

[10] = system: M. restricta; assay: Disc-diffusion assay, combinations with piroctone olamine (PO) in DMSO, M. restricta; assay type: cell-based, Malassezia restricta; settings: 4 days, ratio greater than 1.0 = boosting effect
Method: Anti-Malassezia effect of combinations of PO and perfumery materials in solvent DMSO against M. restricta was determined using disc-diffusion assay as described above. Aliquots (20 μL) of each sample solution was added to each disc. Agar plates were incubated at 30° C. for 4 days. After incubation, diameters of the clear inhibition zones around the discs were measured. Ratio of inhibition zone diameter of each combination to that of PO only were calculated. […] Anti-Malassezia effect of combinations of PO and perfumery raw materials mixtures in solvent DMSO was determined using disc-diffusion assay, as described above. Aliquots (20 μL) of each sample solution was added to each disc. Agar plates were incubated at 30° C. for 4 days. After incubation, diameters of the clear inhibition zones around the discs were measured. Ratio of inhibition zone diameter of each combination to that of PO only were calculated.

| Molecule | MIC [1] | MIC [2] | zone of inhibition at 0.2 % [3] | zone of inhibition at 2 % [3] | zone of inhibition at 0.2 % [4] | zone of inhibition at 2 % [4] | zone of inhibition at 2 % [5] | zone of inhibition at 1 % [3] | zone of inhibition at 1 % [4] | also measured |
| --- | --- | --- | --- | --- | --- | --- | --- | --- | --- | --- |
| COC(=O)c1c(C)cc(O)c(C)c1O [methyl 2,4-dihydroxy-3,6-dimethylbenzoate] | 290 µg/mL (≈ 1480 µM) | 111 µg/mL (≈ 566 µM) | 6.3 mm | 12 mm | 7.4 mm | 9.2 mm | 7 mm |  |  |  |
| Cc1cc(CC(C)CC(C)(C)C)n(O)c(=O)c1.NCCO (stereo not shown) [Piroctone Olamine (PO), Piroctone Olamine] |  |  |  |  |  |  |  |  |  | Inhibition zone (mm) on M. furfur ([6]; Table 5, 0.19% in DMSO, 6 mm disc): 11.8 mm; Inhibition zone diameter (mm) against M. restricta [7]: No inhibition zone |
| CCCc1cccc(O)c1 [3-propylphenol] |  |  |  |  |  |  |  |  |  | Inhibition zone (mm) M. globosa [8]: 10.2 mm; Inhibition zone (mm) M. restricta [9]: 7.7 mm |
| C/C(=C\c1ccc(C)cc1)CCC=O [(4E)-4-methyl-5-(4-methylphenyl)-4-pentenal] | 333 µg/mL (≈ 1770 µM) | 75 µg/mL (≈ 398 µM) | 6.8 mm | 12 mm |  | 10.5 mm | 7.5 mm | 11.6 mm | 9 mm | Ratio of inhibition zone diameter (0.5% PRM + 0.1% PO) to 0.1% PO [10]: 1.2 |
| CCCCCc1cc(C)ccn1 [4-methyl-2-pentylpyridine] | 222 µg/mL (≈ 1360 µM) | 693 µg/mL (≈ 4240 µM) | 6.6 mm |  | 6.7 mm |  | 6.7 mm |  |  |  |
| CC/C=C\CC/C=C/C=O [(2E,6Z)-2,6-nonadienal] | 44 µg/mL (≈ 318 µM) | 233 µg/mL (≈ 1690 µM) | 7.7 mm | > 40 mm | 12.4 mm |  | 13.5 mm | > 40 mm | > 40 mm | Inhibition zone (mm) on M. furfur ([6]; Table 5, 0.75% in DMSO, 6 mm disc): 7.6 mm; Inhibition zone (mm) on M. furfur ([6]; Table 6, 1% in DMSO): 11.4 mm; Inhibition zone (mm) on M. furfur ([6]; Table 7, 1% in DMSO): 14.1 mm; Inhibition zone (mm) M. globosa [8]: 12.8 mm; Inhibition zone (mm) M. restricta [9]: 11.1 mm; Ratio of inhibition zone diameter (0.2% PRM + 0.1% PO) to 0.1% PO [10]: 1.2; Ratio of inhibition zone diameter (0.5% PRM + 0.1% PO) to 0.1% PO [10]: 3.4 |
| CC(=O)N1CCN(c2ccc(OCC3COC(Cn4ccnc4)(c4ccc(Cl)cc4Cl)O3)cc2)CC1 (stereo not shown) [ketoconazole] |  |  |  |  |  |  |  |  |  | Inhibition zone (mm) on M. furfur ([6]; Table 7, 0.1% in DMSO): 22.3 mm; Inhibition zone (mm) on M. furfur ([6]; Table 7, 0.2% in DMSO): 24.6 mm; Inhibition zone (mm) on M. furfur ([6]; Table 7, 0.3% in DMSO): 24.5 mm; Inhibition zone (mm) on M. furfur ([6]; Table 7, 0.4% in DMSO): 24.9 mm |
| CCCCCCCCC1CCC(=O)O1 (racemic) [gamma-dodecalactone, (+/−)-5-octyldihydro-2(3h)-furanone] | 148 µg/mL (≈ 746 µM) | 173 µg/mL (≈ 872 µM) |  |  | 6.3 mm |  | 6.9 mm |  |  |  |
| CC(C)C1CCC(CO)CC1 (stereo not shown) [p-menthan-7-ol] | 222 µg/mL (≈ 1420 µM) | 625 µg/mL (≈ 4000 µM) | 6.7 mm |  | 6.5 mm |  | 6.3 mm |  |  |  |
| cyclopropylmethyl (3Z)-3-hexenoate + cyclopropylmethyl (3E)-3-hexenoate |  |  |  |  |  |  |  |  |  | MIC (ppm) M. furfur [1]: 333 ppm; MIC (ppm) S. aureus [2]: 625 ppm; Inhibition zone (mm) M. restricta ([3]; 0.2% in DMSO): 6.3 mm; Inhibition zone (mm) M. restricta ([3]; 2% in DMSO): 11.0 mm; Inhibition zone (mm) M. globosa ([4]; 0.2% in DMSO): 8.7 mm; Inhibition zone (mm) M. globosa ([4]; 2% in DMSO): 13.0 mm; Inhibition zone (mm) M. furfur ([5]; 2% in DMSO, 20 μL on 6 mm disc, 3 days, NI means no inhibition zone): 8.0 mm |
| C=CCc1ccc(O)c(OC)c1 [2-methoxy-4-(2-propen-1-yl)phenol] |  |  |  |  |  |  |  |  |  | Inhibition zone (mm) M. globosa [8]: 8.2 mm; Inhibition zone (mm) M. restricta [9]: 7.3 mm |
| CC(C)=CCC/C(C)=C/C=O [citral, (Z)-3,7-dimethyl-2,6-octadienal+(E)-3,7-dimethyl-2,6-octadienal] | 222 µg/mL (≈ 1460 µM) | 450 µg/mL (≈ 2960 µM) | 6.2 mm | > 40 mm | 6.2 mm | 8.7 mm | 8.6 mm | 7.1 mm |  | Ratio of inhibition zone diameter (1% PRM + 0.35% PO) to 0.35% PO [10]: 1.1 |
| CCCCC(CC)CO (stereo not shown) [2-ethyl-1-hexanol] | 44 µg/mL (≈ 338 µM) | 867 µg/mL (≈ 6660 µM) |  |  |  |  | 7.6 mm | 6.4 mm | 6.7 mm |  |
| O=C/C=C/c1ccccc1 [cinnamaldehyde, (E)-3-phenyl-2-propenal] | 99 µg/mL (≈ 749 µM) | 293 µg/mL (≈ 2220 µM) | 8.4 mm | 33.3 mm |  | 27.4 mm | 16.5 mm | 34.5 mm | 17.6 mm | Ratio of inhibition zone diameter (0.2% PRM + 0.1% PO) to 0.1% PO [10]: 1.4; Ratio of inhibition zone diameter (0.2% PRM + 0.35% PO) to 0.35% PO [10]: 1.3; Ratio of inhibition zone diameter (0.5% PRM + 0.1% PO) to 0.1% PO [10]: 3.4 |
| CCCCCCCCC/C=C/C=O [(2E)-2-dodecenal] | 148 µg/mL (≈ 812 µM) | 49 µg/mL (≈ 269 µM) | 10 mm | 18.1 mm |  | 17.9 mm | 12.6 mm | 14.4 mm | 15.2 mm | Ratio of inhibition zone diameter (0.5% PRM + 0.1% PO) to 0.1% PO [10]: 2.1; Ratio of inhibition zone diameter (1% PRM + 0.35% PO) to 0.35% PO [10]: 1.2 |
